Assay results reported in patent US20210063414A1, “METHODS FOR PREVENTING AND/OR TREATING BONE LOSS CONDITIONS BY MODULATING IRISIN” (Dana-Farber Cancer Institute, Inc., priority 2018, published 2021).

System: sclerostin
Assay: Irisin injection in mice: sclerostin mRNA in osteocyte-enriched bones and plasma sclerostin protein (ELISA)
Assay type: in vivo
Details: co-injection of 1 mg/kg inhibitor with irisin
Procedure: 8 weeks old mice were injected daily with indicated dose of irisin for 6 days. […] were collected and treated with collagenase to yield osteocyte-enriched bones. Sclerostin mRNA level from osteocyte-enriched tibia was analyzed by qPCR (FIG. 7A). Cyclophilin was used as a house-keeping gene. Plasma was collected to analyze the circulating sclerostin protein level by ELISA assay (FIG. 7B). Data are represented as mean±SEM. For FIG. 7A and FIG. 7B, n=5 animals/group. * indicates p<0.05, and *** indicates p<0.001.
Certain materials and methods were used to generate the results described herein. For example, the data shown in FIG. 1A resulted from MLO-Y4 (an osteocyte-like cell line) cells treated with the indicated concentration of irisin and hydrogen peroxide for 4 hours. Cells were stained with Hoechst 33342 (ThermoFisher Scientific, catalog number H3570) and Eth-D1 (ThermoFisher Scientific, catalog number E1169) and analyzed to determine the percentage of cell death using ImageJ. […] Co-precipitated irisin was analyzed by immunoblot analysis against flag tag (Sigma Aldrich, catalog number A8592). The data shown in FIGS. 5A and 5B were generated from MLO-Y4 cells treated and analyzed as in the experiments used to generate the data shown in FIG. 2D, except that pre-treatment of 100 nM RGDS (FIG. 5A) or echistatin (R & D Systems Inc., catalog number 3202/100U) (FIG. 5B) for 10 minutes was performed before irisin treatment. […] RNAs were extracted from the cells and the sclerostin mRNA level was analyzed by qPCR (FIG. 6A) or treated and analyzed as in (FIG. 6A), except that pre-treatment of 10 μM RGDS, RGDyK (Selleck, catalog number S7844), or echistatin was performed for 10 minutes before irisin treatment. […] Sclerostin mRNA level was analyzed by qPCR (FIG. 7A). […] Epididymal fats were collected, RNAs were extracted from the tissues, and mRNA levels of the indicated genes were analyzed by qPCR. […]

N=C(N)NCCC[C@@H]1NC(=O)[C@H](CCCCN)NC(=O)[C@@H](Cc2ccc(O)cc2)NC(=O)[C@H](CC(=O)O)NC(=O)CNC1=O [cyclo RGDyK]
effect on irisin-induced gene expression of sclerostin in osteocyte-enriched bones: prevented | effect on irisin-induced sclerostin protein level in plasma: prevented
